From patent publication US20080214807A1, “Substituted Spiro Compounds and their Use for Producing Drugs” (Gruenenthal GmbH, priority 2005, published 2008)

Experiments:
VR1 (human) = target: T1, VR1 (human) (Homo sapiens, UniProt Q8NER1); assay: Functional testing on vanilloid receptor VR1, FLIPR Ca2+ inflow assay (CHO K1 cells stably transfected with the VR1 gene); assay type: cell-based; settings: test compound 10 μM; for inhibition at 10 µM / activation at 10 µM: CHO-K1; for inhibition at 10 µM: read-out: VR1 (human) (% inhibition compared to 10 μM CP); for activation at 10 µM: read-out: VR1 (human) (% stimulation compared to 10 μM CP)
T1 construct: expressed in transfected cells; host or cells: CHO K1 cells (ECACC)
T1 sequence (Q8NER1 whole entry): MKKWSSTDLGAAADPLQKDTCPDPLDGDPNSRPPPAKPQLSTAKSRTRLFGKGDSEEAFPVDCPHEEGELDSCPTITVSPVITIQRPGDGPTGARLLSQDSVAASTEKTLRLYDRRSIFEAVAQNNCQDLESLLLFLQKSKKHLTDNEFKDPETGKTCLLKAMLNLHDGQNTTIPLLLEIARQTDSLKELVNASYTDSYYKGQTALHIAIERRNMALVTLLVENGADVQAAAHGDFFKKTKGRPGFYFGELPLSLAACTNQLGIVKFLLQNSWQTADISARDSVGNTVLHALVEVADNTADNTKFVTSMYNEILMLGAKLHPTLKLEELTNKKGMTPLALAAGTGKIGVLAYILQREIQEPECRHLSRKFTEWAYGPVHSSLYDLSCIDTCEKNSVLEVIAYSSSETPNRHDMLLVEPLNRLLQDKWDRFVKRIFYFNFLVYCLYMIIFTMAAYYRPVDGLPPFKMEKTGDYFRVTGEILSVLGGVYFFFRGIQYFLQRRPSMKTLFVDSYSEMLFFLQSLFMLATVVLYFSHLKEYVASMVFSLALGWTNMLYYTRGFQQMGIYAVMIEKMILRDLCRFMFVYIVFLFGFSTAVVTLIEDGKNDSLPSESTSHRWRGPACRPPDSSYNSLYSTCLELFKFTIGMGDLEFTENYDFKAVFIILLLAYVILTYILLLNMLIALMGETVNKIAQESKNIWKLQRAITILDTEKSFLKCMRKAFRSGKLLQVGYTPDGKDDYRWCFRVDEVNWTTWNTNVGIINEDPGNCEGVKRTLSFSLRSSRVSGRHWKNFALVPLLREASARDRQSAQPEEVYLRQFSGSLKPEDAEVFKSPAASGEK
Description: II. Functional Testing Carried out on the Vanilloid Receptor (VR1)
The agonistic or antagonistic effect of the substances to be tested can also be determined on the vanilloid receptor (VR1) using the following assay. According to this assay, the Ca^2+ inflow is quantified through the channel using a Ca^2+-sensitive dye (type Fluo-4, Molecular Probes Europe BV, Leiden, Netherlands) in a fluorescent imaging plate reader (FLIPR, Molecular Devices, Sunnyvale, USA).
Chinese hamster ovary cells (CHO K1 cells, European Collection of Cell Cultures (ECACC) United Kingdom) were stably transfected with the VR1 gene. For functional testing, these cells were plated out on poly-D-lysine-coated black 96 well plates having a clear base (BD Biosciences, Heidelberg, Germany) at a density of 25,000 cells/well. The cells were incubated overnight at 37° C. and 5% CO2 in a culture medium (Ham's F12 nutrient mixture, 10-% by volume of FCS (foetal calf serum), 18 μg/ml L-proline). The next day the cells were incubated with Fluo-4 (Fluo-4 2 μM, 0.01% by volume of Pluronic F127, Molecular Probes in HBSS (Hank's buffered saline solution), Gibco Invitrogen GmbH, Karlsruhe, Germany) for 30 minutes at 37° C. Subsequently, the plates were washed 3 times with HBSS buffer and after further incubation for 15 minutes at room temperature used for Ca^2+ measurement in a FLI PR assay. The Ca^2+-dependent fluorescence was measured before and after the addition of the substances to be tested (λex wavelength=488 nm, λem=540 nm). Quantification was carried out by measuring the highest fluorescence intensity (FC, Fluorescence Counts) over time.
The FLIPR protocol consists of 2 substance additions. First the compounds to be tested (10 μM) were pipetted onto the cells and the Ca^2+ inflow was compared with the control (capsaicin 10 μM) (% activation based on the Ca^2+ signal after the addition of 10 μM capsaicin). After 5 minutes' incubation, 100 nM of capsaicin were administered and the Ca^2+ inflow was also determined.
Desensitising agonists and antagonists led to suppression of the Ca^2+ inflow. The % inhibition was calculated compared to the maximum achievable inhibition with 10 μM of capsaicin.

[1] = target: T2, rat-species vanilloid receptor 1 (VR1/TRPV1) (Rattus norvegicus, UniProt O35433); assay: Functional testing on vanilloid receptor 1 (VR1/TRPV1), FLIPR Ca2+ inflow assay in rat dorsal root ganglia cells; assay type: cell-based; settings: test compound 10 μM; for inhibition at 10 µM: read-out: VR1 (rat) (% inhibition compared to 10 μM CP); for activation at 10 µM: read-out: VR1 (rat) (% stimulation compared to 10 μM CP)
T2 construct: endogenous in cells; host or cells: primary cultured rat dorsal root ganglion cells
T2 sequence (O35433 whole entry): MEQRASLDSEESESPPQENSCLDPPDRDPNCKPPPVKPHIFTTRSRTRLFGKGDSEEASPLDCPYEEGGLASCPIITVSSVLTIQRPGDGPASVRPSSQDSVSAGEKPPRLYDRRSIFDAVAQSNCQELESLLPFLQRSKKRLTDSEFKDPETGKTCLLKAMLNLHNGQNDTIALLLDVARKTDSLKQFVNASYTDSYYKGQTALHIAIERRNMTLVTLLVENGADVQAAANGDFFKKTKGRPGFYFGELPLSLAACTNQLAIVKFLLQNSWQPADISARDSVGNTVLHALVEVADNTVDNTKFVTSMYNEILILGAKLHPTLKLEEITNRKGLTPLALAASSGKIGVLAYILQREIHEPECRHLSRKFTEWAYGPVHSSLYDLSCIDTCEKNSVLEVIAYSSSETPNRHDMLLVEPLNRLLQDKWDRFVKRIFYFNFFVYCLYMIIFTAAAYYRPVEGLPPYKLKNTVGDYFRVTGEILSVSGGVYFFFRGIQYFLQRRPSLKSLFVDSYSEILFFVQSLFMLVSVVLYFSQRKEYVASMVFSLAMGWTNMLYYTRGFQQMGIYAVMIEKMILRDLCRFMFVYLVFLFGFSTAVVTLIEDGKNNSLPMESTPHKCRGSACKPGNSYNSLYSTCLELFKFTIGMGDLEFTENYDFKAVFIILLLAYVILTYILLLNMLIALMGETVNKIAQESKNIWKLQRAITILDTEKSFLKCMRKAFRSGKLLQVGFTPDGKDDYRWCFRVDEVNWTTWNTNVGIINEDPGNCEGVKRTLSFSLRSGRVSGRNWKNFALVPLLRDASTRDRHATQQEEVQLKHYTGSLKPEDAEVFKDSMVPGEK
Description: I. Functional Testing Carried out on the Vanilloid Receptor 1 (VRI/TRPV1 Receptor)
The agonistic or antagonistic effect of the substances to be tested can be determined on the rat-species vanilloid receptor 1 (VR1/TRPV1) using the following assay. According to this assay, the Ca^2+ inflow is quantified through the receptor channel using a Ca^2+-sensitive dye (type Fluo-4, Molecular Probes Europe BV, Leiden, Netherlands) in a fluorescent imaging plate reader (FLIPR, Molecular Devices, Sunnyvale, USA).
Complete medium: 50 mL HAMS F12 nutrient mixture (Gibco Invitrogen GmbH, Karlsruhe, Germany) with
10% by volume of FCS (foetal calf serum, Gibco Invitrogen GmbH, Karlsruhe, Germany, […]);
2 mM L-glutamine (Sigma, Munich, Germany);
1% by weight of AA solution (antibiotic/antimyotic solution, PAA, Pasching, Austria) and 25 ng/ml NGF medium (2.5 S, Gibco Invitrogen GmbH, Karlsruhe, Germany)
Cell culture plate: Poly-D-lysine-coated, black 96 well plates having a clear base (96 well black/clear plate, BD Biosciences, Heidelberg, Germany) were additionally coated with laminin (Gibco Invitrogen GmbH, Karlsruhe, Germany), the laminin being diluted with PBS (Ca—Mg-free PBS, Gibco Invitrogen GmbH, Karlsruhe, Germany) to a concentration of 100 μg/mL. Aliquots having a laminin concentration of 100 μg/mL were removed and stored at −20° C. The aliquots were diluted with PBS in a ratio of 1:10 to 10 μg/mL laminin and in each case 50 μL of the solution were pipetted into a recess in the cell culture plate. The cell culture plates were incubated for at least two hours at 37° C., the excess solution was removed by suction-filtration and the recesses were each washed twice with PBS. The coated cell culture plates were stored with excess PBS which was not removed until just before the feeding of the cells.
Preparation of the Cells:
The vertebral column was removed from decapitated rats and placed immediately into cold HBSS buffer (Hank's buffered saline solution, Gibco Invitrogen GmbH, Karlsruhe, Germany), i.e. buffer located in an ice bath, mixed with 1% by volume (percent by volume) of an AA solution (antibiotic/antimyotic solution, PAA, Pasching, Austria). The vertebral column was cut longitudinally and removed together with fasciae from the vertebral canal. Subsequently, the dorsal root ganglia (DRG) were removed and again stored in cold HBSS buffer mixed with 1% by volume of an AA solution. The DRG, from which all blood remnants and spinal nerves had been removed, were transferred in each case to 500 μL of cold type 2 collagenase (PAA, Pasching, Austria) and incubated for 35 minutes at 37° C. After the addition of 2.5% by volume of trypsin (PAA, Pasching, Austria), incubation was continued for 10 minutes at 37° C. After complete incubation, the enzyme solution was carefully pipetted off and 500 μL of complete medium were added to each of the remaining DRG. The DRG were in each case suspended several times, drawn through cannulae No. 1, No. 12 and No. 16 using a syringe and transferred to a 50 mL Falcon tube which was filled up to 15 mL with complete medium. The contents of each Falcon tube was in each case filtered through a 70 μm Falcon filter element and centrifuged for 10 minutes at 1,200 rpm and room temperature. The resulting pellet was in each case taken up in 250 μL of complete medium and the number of cells determined.
The number of cells in the suspension was set to 3×10^5 per mL and 150 μL of this suspension were in each case introduced into a recess in the cell culture plates coated as described hereinbefore. In the incubator the plates were left for two to three days at 37° C., 5% by volume of CO2 and 95% relative humidity. […]

[2] = 5 min incubation, then 100 nM capsaicin, relative to maximum achievable inhibition with 10 μM capsaicin
[3] = Ca2+ inflow relative to signal of 10 μM capsaicin (CP)

Row | inhibition at 10 µM (VR1 (human); [2]) [%] | activation at 10 µM (VR1 (human); [3]) [%] | inhibition at 10 µM [1, 2] [%] | activation at 10 µM [1, 3] [%] | VR1 (human) (% inhibition compared to 10 μM CP) (VR1 (human); [2]) [%] | VR1 (human) (% stimulation compared to 10 μM CP) (VR1 (human); [3]) [%] | VR1 (rat) (% inhibition compared to 10 μM CP) [1, 2] [%] | VR1 (rat) (% stimulation compared to 10 μM CP) [1, 3] [%] | Structure (SMILES)
1 | 24.9 | 16.4 | 58.1 | 6.55 | – | – | – | – | O=C(Nc1cccc(C(F)(F)F)c1)N1CCC2(CC1)CC(C(=O)N1CCN(c3ncccc3Cl)CC1)=NO2 [Example 68, 3-[4-(3-chloropyridin-2-yl)piperazine-1-carbonyl]-1-oxa-2,8-diazaspiro[4.5]dec-2-ene-8-carboxylic acid-(3-trifluoromethylphenyl)amide]
2 | 42 | 34.7 | 57.2 | 31.2 | – | – | – | – | O=C(Nc1ccc(C(F)(F)F)cc1)N1CCC2(CC1)CC(C(=O)N1CCN(c3ncccc3Cl)CC1)=NO2 [Example 71, 3-[4-(3-chloropyridin-2-yl)piperazine-1-carbonyl]-1-oxa-2,8-diazaspiro[4.5]dec-2-ene-8-carboxylic acid-(4-trifluoromethylphenyl)amide]
3 | 77 | 42 | 95 | 59 | – | – | – | – | CC(C)(C)c1ccc(NC(=O)N2CCC3(CC2)CC(C(=O)N2CCN(c4ncccc4Cl)CC2)=NO3)cc1 [Example 116, 3-[4-(3-chloropyridin-2-yl)piperazine-1-carbonyl]-1-oxa-2,8-diazaspiro[4.5]dec-2-ene-8-carboxylic acid-(4-tert-butylphenyl)amide]
4 | 48.1 | 7.07 | 100 | 17.2 | – | – | – | – | CC(C)(C)c1ccc(NC(=O)N2CCC3(CC2)CC(C(=O)N2CCN(c4ncccc4C(F)(F)F)CC2)=NO3)cc1 [Example 228, 3-[4-(3-trifluoromethylpyridin-2-yl)piperazine-1-carbonyl]-1-oxa-2,8-diazaspiro[4.5]dec-2-ene-8-carboxylic acid-(4-tert-butylphenyl)amide]

Further lines, the compound ahead of its results:

Row | Structure (SMILES) | inhibition at 10 µM (VR1 (human); [2]) [%] | activation at 10 µM (VR1 (human); [3]) [%] | inhibition at 10 µM [1, 2] [%] | activation at 10 µM [1, 3] [%] | VR1 (human) (% inhibition compared to 10 μM CP) (VR1 (human); [2]) [%] | VR1 (human) (% stimulation compared to 10 μM CP) (VR1 (human); [3]) [%] | VR1 (rat) (% inhibition compared to 10 μM CP) [1, 2] [%] | VR1 (rat) (% stimulation compared to 10 μM CP) [1, 3] [%]
5 | CSc1ccc(NC(=O)N2CCC3(CC2)CC(C(=O)N2CCN(c4ncccc4Cl)CC2)=NO3)cc1 [Example 58, 3-[4-(3-chloropyridin-2-yl)piperazine-1-carbonyl]-1-oxa-2,8-diazaspiro[4.5]dec-2-ene-8-carboxylic acid-(4-methylsulphanylphenyl)amide] | 84.9 | 72.9 | 72.5 | 19.5 | – | – | – | –
6 | CC(C)c1ccccc1NC(=O)N1CCC2(CC1)CC(C(=O)N1CCN(c3ncccc3Cl)CC1)=NO2 [Example 61, 3-[4-(3-chloropyridin-2-yl)piperazine-1-carbonyl]-1-oxa-2,8-diazaspiro[4.5]dec-2-ene-8-carboxylic acid-(2-isopropylphenyl)amide] | -15.1 | 0.08 | 47 | 0.47 | – | – | – | –
7 | CC(C)c1ccc(NC(=O)N2CCC3(CC2)CC(C(=O)N2CCN(c4ncccc4Cl)CC2)=NO3)cc1 [Example 63, 3-[4-(3-chloropyridin-2-yl)piperazine-1-carbonyl]-1-oxa-2,8-diazaspiro[4.5]dec-2-ene-8-carboxylic acid-(4-isopropylphenyl)amide] | 15.8 | 2.59 | 78.9 | 24.5 | – | – | – | –
8 | COc1ccc(CNC(=O)C2=NOC3(CCN(C(=O)Nc4ccc(C(F)(F)F)cc4)CC3)C2)cc1OC [Example 70, 1-oxa-2,8-diazaspiro[4.5]dec-2-ene-3,8-dicarboxylic acid-3-(3,4-dimethoxybenzylamide)-8-[(4-trifluoromethylphenyl)amide]] | – | – | – | – | −0.43 | −0.18 | 67.41 | 0.35
9 | O=C(Nc1ccc(S(F)(F)(F)(F)F)cc1)N1CCC2(CC1)CC(C(=O)N1CCN(c3ncccc3Cl)CC1)=NO2 [Example 229, 3-[4-(3-chloropyridin-2-yl)piperazine-1-carbonyl]-1-oxa-2,8-diazaspiro[4.5]dec-2-ene-8-carboxylic acid-(4-pentafluorosulphanylphenyl)amide] | 37 | 10 | 94 | 45 | – | – | – | –
